Reference: article PMC8044046 (European journal of medicinal chemistry, 2021)

How the values were obtained:
Test in all cases: CellTiter Glo cell viability
Assay type in all cases: cell-based
[1] = system: BT-474 (HER2+) breast cancer cell line; details: read-out: IC50 (μM) BT-474 (HER2+); antiproliferative activity, 72 h, N=3, ±S.E
MCF-7 (HER2−) cell line = details: read-out: IC50 (μM) MCF-7 (HER2−); antiproliferative activity, 72 h, N=3
[2] = system: Calu-3 (HER2+) lung cancer cell line; details: read-out: IC50 (μM) Calu-3 (HER2+); antiproliferative activity, 72 h, N=3, ±S.E
[3] = system: A549 (HER2+) NSCLC cell line; details: read-out: IC50 (μM) A549 (HER2+); antiproliferative activity, 72 h, N=3, ±S.E

Measured: IC50

H2N-K(S-(3-amino-3(biphenyl)propionic acid)F-OH [Control]
> 100 µM: all assays above
